As a reminder, the pIC50 is the negative decadic logarithm of the IC50, by convention in mol/L. In general, half-life refers to the time needed for the level to fall by half in the phase considered. As usually defined, the IC50 is the concentration that inhibits the measured activity by half.

Each structure is given as a SMILES string. pIC50: −log10 of the molar value.

From patent publication US8592581B2, “Trisubstituted purine derivatives” (Cyclacel Limited, priority 2007, dated 2013) come the findings set out here.

In one data set the test system is H1650. The experiment in a line: Alamar blue cytotoxicity assay H1650. The class given is cell-based. Particulars: Homo sapiens, NCI-H1650; 72 hours; read-out: cellular cytotoxicity IC50 H1650. The protocol: (§1) In order to determine the cellular potency of the compounds, the cytotoxicity of each compound was determined against a range of cell lines. Standard cytotoxicity methods were performed as follows: cells were seeded in 96-well plates appropriately for their doubling time (2-5000 cells per well) in RPMI or DMEM media containing 10% FCS and incubated overnight at 37° C., 5% CO2. The media was removed and 100 μl fresh media containing increasing concentrations of appropriate compound was added and the cells incubated for 72 hours at 37° C., 5% CO2. A 10% stock of alamar blue (Roche, Lewes, United Kingdom) was prepared in medium and 100 μl added to the cells which were incubated for 2 hours. Absorbance was measured on the Wallac Victor 2 1420 multi-label counter at 544-595 nm.
A general note: Alamar Blue is a resazurin reagent that responds to reducing activity.

The target in data set [1] is T1, CYP2C19 (Homo sapiens (Human), UniProt P33261). Nature of the data set: Cytochrome P450 substrate identification (Bactosomes) CYP2C19. Format: in vitro ADME. Particulars: pH 7.4, 5 μM test compound, up to 45 min, read-out: half life in the presence of CYP2C19. The method, then:
(§2) cDNA expressed human CYP450 enzyme preparations co-expressed with human NADPH cytochrome P450 reductase (Bactosomes™) were supplied by Cypex Ltd. Bactosomes™ (final P450 concentration CYP1A2 100 pmol/mL, CYP2C8 50 pmol/mL, CYP2C9 25 pmol/mL, CYP2C19 100 pmol/mL, CYP2D6 50 pmol/mL and CYP3A4 25 pmol/mL), 0.1M phosphate buffer pH7.4 and test compound (final substrate concentration=5 μM; final DMSO concentration=0.25%) were pre-incubated at 37° C. prior to the addition of NADPH (final concentration=1 mM) to initiate the reaction. Incubations were also performed using control bactosomes (no P450 enzymes present) to reveal any non-enzymatic degradation. The final incubation volume was 25 μL. Compounds known to be metabolised specifically by each CYP450 isoform were used as control compounds.
(§3) Each compound was incubated singly for 0, 5, 15, 30 and 45 min with each CYP isoform. The reactions were stopped by the addition of 50 μL methanol containing internal standard at the appropriate time points. The incubation plates were centrifuged at 2500 rpm for 20 min at 4° C. to precipitate the protein. Following protein precipitation, the sample supernatants were combined in cassettes of up to four compounds and analysed using generic LC-MS/MS conditions.
(§4) The In peak area ratio (which has been corrected for any loss in the incubations with the control bactosomes) was plotted against time and the gradient of the line determined.
(§5) The elimination rate constant (k)=(−gradient)

Another data set has as its target CYP3A4 (Homo sapiens (Human), UniProt P08684). The experiment in a line: Cytochrome P450 substrate identification (Bactosomes) CYP3A4. The class given is in vitro ADME. The method, then:
as §2, §3, §4, §5

The next data set deals with A549. The experiment in a line: Alamar blue cytotoxicity assay A549. The class given is cell-based. Particulars: Homo sapiens, 72 hours, read-out: cellular cytotoxicity IC50 A549. The protocol: as §1
The target in a further data set is CYP1A (Homo sapiens, UniProt P05177). Nature of the data set: CYP1A inhibition, human liver microsomes, ethoxyresorufin. The class given is in vitro ADME. To be noted: human liver microsomes, probe ethoxyresorufin (0.5 μM), read-out: IC50 (μM) CYP1A. The protocol:
Six test compound concentrations (0.05, 0.25, 0.5, 2.5, 5, 25 μM in DMSO; final DMSO concentration=0.35%) were incubated with human liver microsomes (0.25 mg/mL) and NADPH (1 mM) in the presence of the probe substrate ethoxyresorufin (0.5 μM) for 5 min at 37° C. The selective CYP1A inhibitor, alpha-naphthoflavone, was screened alongside the test compounds as a positive control.
(§6) For the CYP1A incubations, the reactions were terminated by the addition of methanol, and the formation of the metabolite, resorufin, was monitored by fluorescence (excitation wavelength=535 nm, emission wavelength=595 nm). For the CYP2C9, CYP2C19, CYP2D6, and CYP3A4 incubations, the reactions were terminated by the addition of methanol containing internal standard. The samples were then centrifuged, and the supernatants were combined, for the simultaneous analysis of 4-hydroxytolbutamide, 4-hydroxymephenyloin, dextrorphan, and 1-hydroxymidazolam plus internal standard by LC-MS/MS using generic LC-MS/MS conditions. Formic acid in deionised water (final concentration=0.1%) was added to the final sample prior to analysis.
On the technique in general: Microsomes from liver hold many membrane-bound enzymes, among them those of drug oxidation.

Data set [2] concerns the target T1, CYP2C19. The experiment in a line: CYP2C19 inhibition, human liver microsomes, mephenyloin. The class given is in vitro ADME. The protocol: Six test compound concentrations (0.05, 0.25, 0.5, 2.5, 5, 25 μM in DMSO; final DMSO concentration=0.25%) were incubated with human liver microsomes (0.5 mg/mL) and NADPH (1 mM) in the presence of the probe substrate mephenyloin (25 μM) for 60 min at 37° C. The selective CYP2C19 inhibitor, tranylcypromine, was screened alongside the test compounds as a positive control.
as §6

The next data set relates to various cell lines. Nature of the data set: Alamar blue cytotoxicity assay, average over the cell lines of Table 8. The class given is cell-based. The protocol:
as §1

Chain of CYP3A4 (P08684 whole entry): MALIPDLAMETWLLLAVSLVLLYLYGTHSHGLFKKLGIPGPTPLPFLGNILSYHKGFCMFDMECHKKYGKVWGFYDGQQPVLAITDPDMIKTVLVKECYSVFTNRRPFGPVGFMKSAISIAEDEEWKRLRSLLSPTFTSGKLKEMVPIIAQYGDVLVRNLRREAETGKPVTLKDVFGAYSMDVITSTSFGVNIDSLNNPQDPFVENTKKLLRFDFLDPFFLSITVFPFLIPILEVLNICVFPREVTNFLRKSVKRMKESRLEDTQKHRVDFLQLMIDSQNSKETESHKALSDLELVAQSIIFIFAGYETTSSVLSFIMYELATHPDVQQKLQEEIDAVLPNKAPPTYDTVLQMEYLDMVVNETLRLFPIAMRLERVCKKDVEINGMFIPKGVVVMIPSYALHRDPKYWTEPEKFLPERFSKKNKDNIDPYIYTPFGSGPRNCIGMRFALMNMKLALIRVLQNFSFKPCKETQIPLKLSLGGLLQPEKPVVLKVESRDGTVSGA
T1 sequence (P33261 whole entry): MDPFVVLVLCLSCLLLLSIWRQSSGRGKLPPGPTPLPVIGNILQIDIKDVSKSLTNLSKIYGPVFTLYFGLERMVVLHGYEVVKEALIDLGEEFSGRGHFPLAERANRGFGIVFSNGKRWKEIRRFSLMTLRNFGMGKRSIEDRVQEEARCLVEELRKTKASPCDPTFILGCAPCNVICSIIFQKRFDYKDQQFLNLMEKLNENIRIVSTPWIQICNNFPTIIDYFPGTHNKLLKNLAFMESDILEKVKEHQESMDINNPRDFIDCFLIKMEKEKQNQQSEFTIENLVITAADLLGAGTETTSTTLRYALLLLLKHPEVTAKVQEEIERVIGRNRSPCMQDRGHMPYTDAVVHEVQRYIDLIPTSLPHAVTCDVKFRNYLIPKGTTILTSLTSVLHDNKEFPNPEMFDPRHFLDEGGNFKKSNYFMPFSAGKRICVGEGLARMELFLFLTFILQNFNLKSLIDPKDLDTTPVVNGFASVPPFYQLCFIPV
Chain of CYP1A (P05177 2-516 limits assumed): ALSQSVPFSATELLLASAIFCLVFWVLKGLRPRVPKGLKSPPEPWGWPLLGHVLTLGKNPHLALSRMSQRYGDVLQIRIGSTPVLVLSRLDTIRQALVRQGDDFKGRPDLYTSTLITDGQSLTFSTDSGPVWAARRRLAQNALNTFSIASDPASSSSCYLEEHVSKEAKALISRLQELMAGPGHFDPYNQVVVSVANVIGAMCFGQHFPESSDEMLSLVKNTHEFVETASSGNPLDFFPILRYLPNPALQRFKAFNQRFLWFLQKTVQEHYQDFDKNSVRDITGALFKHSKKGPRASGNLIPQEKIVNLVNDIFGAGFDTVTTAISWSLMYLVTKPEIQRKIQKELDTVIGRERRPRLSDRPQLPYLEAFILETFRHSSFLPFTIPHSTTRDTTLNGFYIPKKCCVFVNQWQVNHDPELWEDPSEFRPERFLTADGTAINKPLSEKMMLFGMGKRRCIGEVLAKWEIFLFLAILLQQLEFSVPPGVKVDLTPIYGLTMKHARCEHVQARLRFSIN

In the case of `CC[C@H](Nc1nc(NCc2cnc(C)cc2C)c2ncn(C(C)C)c2n1)[C@@H](C)O` [Compound [1]], the negative-log IC50 (pIC50) in the data set with H1650 is 6.34; with A549, 6.80; in the data set on various cell lines (average over the cell lines of Table 8, read-out: cellular cytotoxicity IC50 Ave), 6.46. Further, the half-life at 5 μM at CYP2C19 [1] was more than 45 min; at CYP3A4 (human, pH 7.4, Bactosomes, 5 μM test compound, up to 45 min, read-out: half life in the presence of CYP3A4), more than 45 min. For the same compound, the “substrate of CYP3A4 (in words)” value on CYP3A4 (Bactosomes system) is reported as “neither a substrate of nor inhibitor of CYP3A4”. Further, the concentration for half-maximal inhibition (IC50) at 5 min at CYP1A was more than 25 µM. At CYP2C19 [2], the 50% inhibitory concentration (IC50) was more than 25 µM. Moreover, the “cytotoxic potency compared with prior art compounds (in words)” value with various cell lines (21 cell lines, versus [A1], [A2] or [A3]) is “significantly more potent”.
